Measurements as given in patent US20190175479A1, “Zinc-Amino Acid-Tripolyphosphate Complexes” (Colgate-Palmolive Company, priority 2017, published 2019).

Experiments:
Format in all cases: physicochemical
[1] = Titration of zinc chloride with sodium tripolyphosphate, clarity of solution; settings: zinc chloride titrated with sodium tripolyphosphate; solution cloudy until about 1 equivalent of STPP was added
Method: In the single component titration procedure, a scintillation vial (20 mL) is loaded with 2 mL of a 0.25M zinc nitrate solution and 6 mL of distilled water. The vial is stirred on a magnetic stir plate with an immersed pH electrode. Initial pH is measured. While stirring, the solution is slowly titrated with a 0.75M aqueous solution of arginine in small portions (e.g., 0.01-0.1 mL). In between each addition, the solution is allowed to equilibrate and the pH is recorded. At the conclusion of the experiment, the molar equivalent of added arginine is plotted against the pH. The slope is calculated and plotted as well to highlight the inflection points, which indicate where complex formation takes places.
Substantially the same single-component titration procedure is also performed in a titration of 0.75M zinc chloride with 0.25M sodium tripolyphosphate.

[2] = Foaming experiment with sodium lauryl sulfate; settings: 7.25 wt % complex (0.85 wt % zinc) with 2 wt % sodium lauryl sulfate in distilled water; vial shaken ten times
Method: A solution of ZLP in distilled water at a concentration of 7.25 wt % (0.85 wt % zinc) containing also 2 wt % of sodium lauryl sulfate is compared to a solution of ZLC and sodium lauryl sulfate at the same concentrations and to a solution of sodium lauryl sulfate. Each solution is sealed in a screw-cap vial and shaken back and forth ten times. […] A similar experiment is conducted using an 1:10 aqueous slurry of the toothpaste formula of Example 1 compared to a control toothpaste having the same composition except for the absence of ZLP (in the control, the 7.25% ZLP is replaced by 0.5 wt % TSPP and 6.75 wt % sorbitol, 70%).

[3] = Dilution experiment (precipitation on dilution with water); settings: solutions in distilled water, ZLP 200 mg/mL, ZLC 185 mg/mL; diluted with water at ratios from 1:2 to 1:16; ZLC result at dilutions of 1:8 to 1:16
Method: (§1) A solution of ZLP in distilled water at a concentration of 200 mg/mL (23.6 wt % zinc) is prepared. For comparison, a solution of zinc-lysine-chloride complex (ZLC) ([Zn(lysine)2Cl]Cl) is prepared at a concentration of 185 mg/mL. Both solutions are diluted with water at ratios from 1:2 to 1:16.

[4] = Polyphosphate experiment (mixing with STPP solution); settings: 5 mL of aqueous complex solution mixed with 5 mL of 2 wt % STPP solution
Method: Aqueous solutions of ZLP and ZLC, respectively, are prepared as described above, and 5 mL of each of these solutions is mixed with 5 mL STPP solution at a concentration of 2 wt %. […] Thus, ZLP complex is stable in the presence of additional STPP, whereas other zinc complexes may not be.

[5] = Storage of undiluted solution at room temperature, repeat LC-MS analysis; settings: undiluted 200 mg/mL solution stored at room temperature for one month
Method: About 6.0 g of lysine hydrochloride is dissolved in 250 ml distilled water with stirring at room temperature. About 12.0 g sodium tripolyphosphate pentabasic is added with stirring, followed by either 50% aqueous sodium hydroxide solution or concentrated hydrochloric acid solution to adjust the pH to either 5, 6, 7, 8, 9 or 10. To the resulting solution, about 2.68 g of zinc oxide is slowly added. The mixture is then allowed to stir at either room temperature, 50° C. or 80° C., for 2 hours. The reaction is monitored by liquid chromatography-mass spectrometry (LC-MS, using electrospray ionization-tandem mass spectrometer running positive ion mode). LC separation is achieved on Agilent Zorbax SB-Aq column (2.1 mm i.d.×50 mm, 3.5 μm particle size), running 5% water/methanol at 70 μL/minute with 1 μL injection volume.
as §1

For `O=P([O-])([O-])OP(=O)([O-])OP(=O)([O-])[O-].[Na+].[Na+].[Na+].[Zn+2]` [Na3Zn(P3O10)], the “solubility in aqueous titration solution” value [1] was “soluble”.

In the case of `O=P([O-])([O-])OP(=O)([O-])OP(=O)([O-])[O-].[Na+].[Zn+2].[Zn+2]` [NaZn2(P3O10)], the “solubility in aqueous titration solution” value [1] was “poorly soluble”.

In the case of `NCCCCC(N)C(=O)O.NCCCCC(N)C(=O)O.[Cl-].[Cl-].[Zn+2]` (stereo not drawn) [ZLC, [Zn(lysine)2Cl]Cl], the “foaming of solution with SLS relative to aqueous SLS solution” value [2] was “significantly inhibited”, the “precipitation upon dilution with water” value [3] was “significant precipitation of insoluble material” and the “appearance after mixing with STPP solution” value [4] was “produces a white precipitate”.

In the case of [Zn(C6H14N2O2)(P3O10)Na4]^+Cl^− [ZLP], the “foaming of solution with SLS relative to aqueous SLS solution” value [2] was “comparable”, the “change of LC-MS spectrum after storage” value [5] was “has not changed” and the “precipitation upon dilution with water” value [3] was “no precipitation occurs at any dilution”. The “appearance after mixing with STPP solution” value [4] was “remains clear and homogenous”.
